# Results published in patent publication US8389679B2, “Targeted antimicrobial moieties” (priority 2009, dated 2013).
# “Also recorded” adds a separate entry of the source.
# System: target microorganisms
# Assay: Screen of synthesized peptides for binding to target microorganisms (targeting peptides, Tables 2 and 3)
# Details: microorganism(s) the targeting peptide was identified as binding to (Table 3)
# Method: Once noted, these peptides were batch synthesized on a multiplex peptide synthesizer, yielding 5-10 mg of each peptide that could readily be screened for biological activity (e.g., binding activity and/or antimicrobial activity.
# Other suitable targeting peptides include the peptides that have been identified as binding to particular target organisms as shown in Table 3 and/or Table 4.
row,Substance,Target(s)
1,1T-1 (YVNYNQSFNSGW; synthetic novel tartgeting peptide IT-1),S. mutans
2,1T-2 (NIFEYFLE; synthetic novel tartgeting peptide IT-2),S. gordonii; also recorded: S. mitis; also recorded: S. oralis; also recorded: V. atypica; also recorded: Lactobacillus casei; also recorded: Saliva-derived biofilms; also recorded: S. mutans; also recorded: S. sanguinis
3,1T-3 (VLGIAGGLDAYGELVGGN; synthetic novel tartgeting peptide IT-3),S. mutans; also recorded: S. gordonii
4,1T-4 (LDAYGELVGGN; synthetic novel tartgeting peptide IT-4),S. mutans; also recorded: S. gordonii; also recorded: S. sanguinis; also recorded: S. oralis; also recorded: V. atypica; also recorded: L. casei
5,1T-5 (LGPIAGAAIGWDLGAISGAGLGWANFCQ; synthetic novel tartgeting peptide IT-5),S. mutans; also recorded: S. sanguinis
6,1T-6 (KFINGVLSQFVLERK; synthetic novel tartgeting peptide IT-6),S. mutans
7,1T-7 (SQRIIEPVKSPQPYPGFSVS; synthetic novel tartgeting peptide IT-7),Myxococcus xanthus
8,1T-8 (FSVAACGEQRAVTFVLLIEDLI; synthetic novel tartgeting peptide IT-8),M. xanthus
9,1T-9 (WAWAESPRCVSTRSNIHALAFRVEVAALT; synthetic novel tartgeting peptide IT-9),M. xanthus
10,1T-10 (SPAGLPGDGDEA; synthetic novel tartgeting peptide IT-10),M. xanthus
11,1T-11 (RISE; synthetic novel tartgeting peptide IT-11),S. mutans; also recorded: S. epidermidis; also recorded: P. aeruginosa
12,1T-12 (FGNIFKGLKDVIETIVKWTAAK; synthetic novel tartgeting peptide IT-12),Corynebacterium; also recorded: xerosis; also recorded: striatum; also recorded: S. epidermidis; also recorded: S. mutans
13,1T-13 (FRSPCINNNSLQPPGVYPAR; synthetic novel tartgeting peptide IT-13),S. aureus; also recorded: S. epidermidis; also recorded: P. aeruginosa
14,1T-14 (ALAGLAGLISGK; synthetic novel tartgeting peptide IT-14),S. mutans; also recorded: S. aureus; also recorded: S. epidermidis; also recorded: C. xerosis
15,1T-15 (DVILRVEAQ; synthetic novel tartgeting peptide IT-15),S. mutans
16,1T-16 (IDMR; synthetic novel tartgeting peptide IT-16),P. aeruginosa
17,1T-17 (NNAIVYIS; synthetic novel tartgeting peptide IT-17),S. mutans
18,1T-18 (YSKTLHFAD; synthetic novel tartgeting peptide IT-18),S. aureus; also recorded: S. epidermidis; also recorded: C. striatum; also recorded: P. aeruginosa
19,1T-19 (PGAFRNPQMPRG; synthetic novel tartgeting peptide IT-19),S. aureus; also recorded: S. epidermidis; also recorded: P. aeruginosa
20,1T-20 (PALVDLSNKEAVWAVLDDHS; synthetic novel tartgeting peptide IT-20),S. mutans; also recorded: P. aeruginosa
21,1T-21 (YVEEAVRAALKKEARISTEDTPVNLPSFDC; synthetic novel tartgeting peptide IT-21),S. mutans; also recorded: P. aeruginosa
22,1T-22 (VPLDDGTRRPEVARNRDKDRED; synthetic novel tartgeting peptide IT-22),S. epidermidis; also recorded: P. aeruginosa
23,1T-23 (PALVDLSNKEAVWAVLDDHS; synthetic novel tartgeting peptide IT-23),S. mutans; also recorded: P. aeruginosa
24,1T-24 (EEAEEKLAEVSQAVKRLVR; synthetic novel tartgeting peptide IT-24),P. aeruginosa
25,1T-25 (VGLDVSVLVLFFGLQLLSVLLGAMIR; synthetic novel tartgeting peptide IT-25),S. aureus; also recorded: S. epidermidis; also recorded: C. xerosis; also recorded: C. striatum; also recorded: P. aeruginosa
26,1T-26 (LTILPTTFFAIIVPILAVAFIAYSGFKIKGIVEHKDQW; synthetic novel tartgeting peptide IT-26),jeikeium; also recorded: C. xerosis; also recorded: C. striatum; also recorded: P. aeruginosa; also recorded: S. mutans; also recorded: S. aureus; also recorded: S. epidermidis; also recorded: Corynebacterium

row,Substance,Target(s)
1,1T-27 (ALFVSLEQFLVVVAKSVFALCHSGTLS; synthetic novel tartgeting peptide IT-27),S. mutans; also recorded: S. aureus; also recorded: S. epidermidis; also recorded: C. jeikeium; also recorded: C. xerosis; also recorded: C. striatum; also recorded: P. aeruginosa
2,1T-28 (VSRDEAMEFIDREWTTLQPAGKSHA; synthetic novel tartgeting peptide IT-28),P. aeruginosa
3,1T-29 (GSVIKKRRKRMSKKKHRKMLRRTRVQRRKLGK; synthetic novel tartgeting peptide IT-29),S. mutans; also recorded: S. aureus; also recorded: S. epidermidis; also recorded: C. jeikeium; also recorded: C. xerosis; also recorded: C. striatum; also recorded: P. aeruginosa
4,1T-30 (GKAKPYQVRQVLRAVDKLETRRKKGGR; synthetic novel tartgeting peptide IT-30),S. aureus; also recorded: S. epidermidis; also recorded: C. xerosis; also recorded: C. striatum; also recorded: P. aeruginosa
5,1T-31 (NATGTDIGEVTLTLGRFS; synthetic novel tartgeting peptide IT-31),S. mutans; also recorded: P. aeruginosa
6,1T-32 (VSFLAGWLCLGLAAWRLGNA; synthetic novel tartgeting peptide IT-32),S. mutans
7,1T-33 (VRTLTILVIFIFNYLKSISYKLKQPFENNLAQSMISI; synthetic novel tartgeting peptide IT-33),S. aureus; also recorded: S. epidermidis; also recorded: C. jeikeium; also recorded: C. xerosis; also recorded: C. striatum; also recorded: P. aeruginosa
8,1T-34 (AFWLNILLTLLGYIPGIVHAVYIIAKR; synthetic novel tartgeting peptide IT-34),S. aureus; also recorded: S. epidermidis; also recorded: C. jeikeium; also recorded: C. xerosis; also recorded: C. striatum; also recorded: P. aeruginosa
9,1T-35 (EICLTLVFPIRGSYSEAAKFPVPIHIVEDGTVELPK; synthetic novel tartgeting peptide IT-35),P. aeruginosa
10,1T-36 (VYRHLRFIDGKLVEIRLERK; synthetic novel tartgeting peptide IT-36),S. aureus; also recorded: S. epidermidis; also recorded: C. jeikeium; also recorded: C. xerosis; also recorded: C. striatum; also recorded: P. aeruginosa
11,1T-37 (YIVGALVILAVAGLIYSMLRKA; synthetic novel tartgeting peptide IT-37),S. mutans; also recorded: S. aereus; also recorded: S. epidermidis; also recorded: C. jeikeium; also recorded: C. xerosis; also recorded: C. striatum; also recorded: P. aeruginosa
12,1T-38 (VMFVLTRGRSPRPMIPAY; synthetic novel tartgeting peptide IT-38),S. mutans; also recorded: S. aereus; also recorded: S. epidermidis; also recorded: C. jeikeium; also recorded: C. xerosis; also recorded: C. striatum; also recorded: P. aeruginosa
13,1T-39 (FGFCVWMYQLLAGPPGPPA; synthetic novel tartgeting peptide IT-39),S. mutans; also recorded: P. aeruginosa
14,1T-40 (QRVSLWSEVEHEFR; synthetic novel tartgeting peptide IT-40),S. mutans; also recorded: P. aeruginosa
15,1T-41 (KRGSKIVIAIAVVLIVLAGVWVW; synthetic novel tartgeting peptide IT-41),S. mutans; also recorded: S. aureus; also recorded: S. epidermidis; also recorded: C. jeikeium; also recorded: C. striatum; also recorded: P. aeruginosa
16,1T-42 (TVLDWLSLALATGLFVYLLVALLRADRA; synthetic novel tartgeting peptide IT-42),S. aureus; also recorded: S. epidermidis; also recorded: C. xerosis; also recorded: C. striatum; also recorded: P. aeruginosa
17,1T-43 (DRCLSVLSWSPPKVSPLI; synthetic novel tartgeting peptide IT-43),C. jeikium; also recorded: P. aeruginosa
18,1T-44 (DPALADFAAGMRAQVRT; synthetic novel tartgeting peptide IT-44),S. mutans; also recorded: S. aureus; also recorded: S. epidermidis; also recorded: C. jeikeium; also recorded: C. striatum; also recorded: P. aeruginosa
19,1T-45 (WTKPSFTDLRLGFEVTLYFANR; synthetic novel tartgeting peptide IT-45),S. aureus; also recorded: S. epidermidis; also recorded: C. striatum; also recorded: P. aeruginosa
20,1T-46 (FSFKQRVMFRKEVERLR; synthetic novel tartgeting peptide IT-46),S. aureus; also recorded: S. epidermidis; also recorded: C. jeikeium; also recorded: C. xerosis; also recorded: C. striatum; also recorded: P. aeruginosa
21,1T-47 (VIKISVPGQVQMLIP; synthetic novel tartgeting peptide IT-47),S. mutans; also recorded: S. epidermidis; also recorded: P. aeruginosa
22,1T-48 (KLQVHHGRATHTLLLQPPLCAPGTIR; synthetic novel tartgeting peptide IT-48),S. aureus; also recorded: S. epidermidis; also recorded: C. jeikeium; also recorded: C. xerosis; also recorded: C. striatum; also recorded: P. aeruginosa
23,1T-49 (SLVRIHDQQPWVTRGAFIDAARTCS; synthetic novel tartgeting peptide IT-49),S. aureus; also recorded: S. epidermidis; also recorded: C. jeikeium; also recorded: P. aeruginosa
24,1T-50 (HSDEPIPNILFKSDSVH; synthetic novel tartgeting peptide IT-50),P. aeruginosa
25,1T-51 (GKPKRMPAEFIDGYGQALLAGA; synthetic novel tartgeting peptide IT-51),S. aureus; also recorded: P. aeruginosa
